In patent publication US9809542B2, “Spiroheterocyclically substituted tetramic acid derivatives” (BAYER INTELLECTUAL PROPERTY GMBH, priority 2010, dated 2017):

Assays:
[1] = tested on: Lolium multiflorum; assay: Herbicidal pre-emergence action; assay type: in vivo; details: pre-emergence method, 320 g of a.i./ha; about 3 weeks
Description: (§1) 1. Herbicidal Pre-Emergence Action
(§2) • Seeds of monocotyledonous and dicotyledonous weed and crop plants are placed in sandy loam in wood fibre pots and covered with soil. The test compounds, formulated in the form of wettable powders (WP), are then, as aqueous suspension with a water application rate of 600 l/ha (converted), with 0.2% of wetting agent added, applied to the surface of the covering soil in various dosages. • After the treatment, the pots are placed in a greenhouse and kept under good growth conditions for the test plants. The visual assessment of the emergence damage on the test plants is carried out after a trial period of about 3 weeks by comparison with untreated controls (herbicidal effect in %: 100% effect=the plants have died, 0% effect=like control plants). • In addition to the compounds mentioned above, the following compounds, applied by the pre-emergence method at 320 g of a.i./ha, show an efficacy of 90% against Lolium multiflorum and Setaria viridis: I-1-a-1 • In addition to the compounds mentioned above, the following compounds, applied by the pre-emergence method at 320 g of a.i./ha, show an efficacy of 100% against Echinocloa crus-galli: I-a-2, I-b-1, I-b-2, I-c-2 2. Herbicidal Post-Emergence Action • Seeds of monocotyledonous and dicotyledonous weed and crop plants are placed in sandy loam in wood fibre pots, covered with soil and cultivated in a greenhouse under good growth conditions. 2-3 weeks after sowing, the test plants are treated at the one-leaf stage. The test compounds, formulated as wettable powders (WP), are, in various dosages at a water application rate of 600 l/ha (converted), with 0.2% of wetting agent added, sprayed onto the green parts of the plants. After the test plants have been kept in the greenhouse under optimum growth conditions for about 3 weeks, the effect of the preparations is rated visually in comparison to untreated controls (herbicidal effect in %: 100% effect=the plants have died, 0% effect=like control plants). • In addition to the compounds mentioned above, the following compounds, applied by the post-emergence method at 80 g/ha, show an efficacy of 90% against Echinocloa crus-galli and Lolium multiflorum: I-a-3, I-a-4, I-a-5.

[2] = tested on: Setaria viridis; assay: Herbicidal pre-emergence action; assay type: in vivo; details: pre-emergence method, 320 g of a.i./ha; about 3 weeks
Description: as §1, §2

[3] = Penetration of active compounds through enzymatically isolated cuticles of apple tree leaves; assay type: in vitro ADME, apple trees of the cultivar Golden Delicious; details: 300 ppm in DMF/emulsifier W 7:1 (w/w), 20° C., 60% rh; for Penetration after 24 h, EC + RME (1 g/l) + AS (1 g/l): + RME 1 g/l + ammonium sulphate 1 g/l; for Penetration after 24 h, EC + RME (1 g/l) + DAHP (1 g/l): + RME 1 g/l + diammonium hydrogenphosphate 1 g/l; for Penetration after 24 h, EC + AS (1 g/l): + ammonium sulphate 1 g/l; for Penetration after 24 h, EC + DAHP (1 g/l): + diammonium hydrogenphosphate 1 g/l; for Penetration after 24 h, EC + RME (1 g/l): + rapeseed oil methyl ester 1 g/l; for Penetration after 24 h, EC: EC alone
Experimental: Example 8: Increase of Penetration into the Plant by Ammonium or Phosphonium Salts and Synergistic Increase of Penetration into the Plant by Ammonium Salts in Combination with Penetrants
In this test, the penetration of active compounds through enzymatically isolated cuticles of apple tree leaves is measured.
Use is made of leaves which, fully developed, are cut from apple trees of the cultivar Golden Delicious. The cuticles are isolated by • initially filling leaf discs punched out and stained with dye on the underside by vacuum infiltration with a pectinase solution (0.2 to 2% strength) buffered to pH between 3 and 4, • then adding sodium azide and • allowing the leaf discs treated in this manner to stand until the original leaf structure has dissolved and the non-cellular cuticles have detached.
Only the cuticles, free from hairs and stoma, of the upper sides of the leaves are then used further. They are washed repeatedly alternately with water and a buffer solution of pH 7. The clean cuticles obtained are then mounted on Teflon plates and smoothed and dried with a gentle stream of air.
In the next step, the cuticle membranes obtained in this manner are placed into stainless steel diffusion cells (=transport chambers) for membrane transport studies. To this end, the cuticles are placed with a pincette into the centre of the edges, coated with silicone fat, of the diffusion cells and closed with a ring, which is also treated with fat. The arrangement is chosen such that the morphological outside of the cuticles is facing outwards, i.e. is exposed to air, whereas the original inside is facing the interior of the diffusion cell.
The diffusion cells are filled with a 30% strength ethylene glycol/water solution. To determine the penetration, in each case 10 μl of the spray liquor of the composition below are applied to the outside of the cuticles. The spray liquor is prepared using local tap water of medium hardness.
After the application of the spray liquors, the water is allowed to evaporate and the chambers are inverted and placed into thermostated tubs in which the temperature and atmospheric humidity over the cuticles can be adjusted using a gentle stream of air onto the cuticles with the spray coating (20° C., 60% rh). At regular intervals, an autosampler takes aliquots and the active compound content is determined by HPLC.
The stated numbers are average values of 8 to 10 measurements. It is clearly evident that even ammonium sulphate on its own improves the penetration markedly, and that, together with RME, a superadditive (synergistic) effect is present.

[4] = tested on: greenhouse red spidermite (Tetranychus urticae); assay: Tetranychus test OP-resistant (TETRUR spray treatment); assay type: in vivo; details: application rate 100 g/ha, bean leaf discs, after 6 days
Experimental: Tetranychus Test OP-Resistant (TETRUR Spray Treatment)
Solvents: 78.0 parts by weight of acetone
• 1.5 parts by weight of dimethylformamide Emulsifier: 0.5 part by weight of alkylaryl polyglycol ether
To produce a suitable preparation of active compound, 1 part by weight of active compound is mixed with the stated amounts of solvents and emulsifier, and the concentrate is diluted with emulsifier-containing water to the desired concentration. Discs of bean leaves (Phaseolus vulgaris) which are infested by all stages of the greenhouse red spidermite (Tetranychus urticae) are sprayed with an active compound preparation of the desired concentration.
After 6 days, the effect in % is determined. 100% means that all spidermites have been killed; 0% means that none of the spidermites have been killed.

[5] = tested on: Echinocloa crus-galli; assay: Herbicidal pre-emergence action; assay type: in vivo; details: pre-emergence method, 320 g of a.i./ha; about 3 weeks
Description: as §1, §2

Row | Structure (SMILES) | efficacy (herbicidal effect in %) [1] [%] | efficacy (herbicidal effect in %) [2] [%] | Penetration after 24 h, EC + RME (1 g/l) + AS (1 g/l) [3] [%] | Penetration after 24 h, EC + RME (1 g/l) + DAHP (1 g/l) [3] [%] | Penetration after 24 h, EC + AS (1 g/l) [3] [%] | Penetration after 24 h, EC + DAHP (1 g/l) [3] [%] | Penetration after 24 h, EC + RME (1 g/l) [3] [%] | Penetration after 24 h, EC [3] [%] | efficacy (effect in %, spidermites killed) [4] [%] | efficacy (herbicidal effect in %) [5] [%]
1 | CON1CCC2(CC1)NC(=O)C(c1c(C)ccc(-c3ccc(F)cc3)c1C)=C2O [I-a-1] | 90 | 90 | 19 | 15 | 3.8 | 2.3 | 0.8 | <0.2 |  | 
2 | CCON1CCC2(CC1)NC(=O)C(c1c(C)ccc(-c3ccc(F)cc3)c1C)=C2O [I-a-2] |  |  | 17 | 21 | 3.8 | 3.9 | 1.7 | 1.4 | 100 | 100
